One assay deals with T1, human orexin-1 receptor (Homo sapiens, UniProt O43613).
T1 construct: expressed in transfected cells; host or cells: CHO (Chinese hamster ovary) cells, G418 selection
T1 sequence (O43613 1-425): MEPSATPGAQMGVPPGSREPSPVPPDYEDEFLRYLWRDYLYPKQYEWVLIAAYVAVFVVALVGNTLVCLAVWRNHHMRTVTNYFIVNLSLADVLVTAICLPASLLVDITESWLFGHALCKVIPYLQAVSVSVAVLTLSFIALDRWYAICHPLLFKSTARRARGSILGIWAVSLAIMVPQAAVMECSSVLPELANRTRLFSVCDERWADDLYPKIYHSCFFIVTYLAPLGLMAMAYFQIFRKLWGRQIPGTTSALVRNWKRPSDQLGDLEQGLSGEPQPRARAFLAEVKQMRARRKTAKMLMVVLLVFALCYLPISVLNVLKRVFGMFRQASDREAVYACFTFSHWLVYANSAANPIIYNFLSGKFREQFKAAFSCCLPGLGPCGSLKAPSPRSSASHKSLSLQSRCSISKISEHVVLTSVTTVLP
Kind of assay: Intracellular calcium measurements (FLIPR), orexin receptor antagonistic activity, OX1. It counts as cell-based. Conditions: CHO cells expressing the human orexin-1 receptor, 10 nM orexin-A as agonist. As to the method: (§1) The orexin receptor antagonistic activity of the compounds of formula (I) is determined in accordance with the following experimental method.
(§2) Intracellular Calcium Measurements:
(§3) Chinese hamster ovary (CHO) cells expressing the human orexin-1 receptor and the human orexin-2 receptor, respectively, are grown in culture medium (Ham F-12 with L-Glutamine) containing 300 μg/ml G418, 100 U/ml penicillin, 100 μg/ml streptomycin and 10% inactivated fetal calf serum (FCS). The cells are seeded at 80′000 cells/well into 96-well black clear bottom sterile plates (Costar) which have been precoated with 1% gelatine in Hanks' Balanced Salt Solution (HBSS). All reagents are from Gibco BRL. The seeded plates are incubated overnight at 37° C. in 5% CO2.
(§4) Human orexin-A as an agonist is prepared as 1 mM stock solution in MeOH:water (1:1), diluted in HBSS containing 0.1% bovine serum albumin (BSA) and 2 mM HEPES for use in the assay at a final concentration of 10 nM.
(§5) Antagonists are prepared as 10 mM stock solution in DMSO, then diluted in 96-well plates, first in DMSO, then in HBSS containing 0.1% bovine serum albumin (BSA) and 2 mM HEPES.
(§6) On the day of the assay, 100 μl of loading medium (HBSS containing 1% FCS, 2 mM HEPES, 5 mM probenecid (Sigma) and 3 μM of the fluorescent calcium indicator fluo-3 AM (1 mM stock solution in DMSO with 10% pluronic acid) (Molecular Probes) is added to each well.
(§7) The 96-well plates are incubated for 60 min at 37° C. in 5% CO2. The loading solution is then aspirated and cells are washed 3 times with 200 μl HBSS containing 2.5 mM probenecid, 0.1% BSA, 2 mM HEPES. 100 μl of that same buffer is left in each well.
(§8) Within the Fluorescent Imaging Plate Reader (FLIPR, Molecular Devices), antagonists are added to the plate in a volume of 50 μl, incubated for 20 min and finally 100 μl of agonist is added. Fluorescence is measured for each well at 1 second intervals, and the height of each fluorescence peak is compared to the height of the fluorescence peak induced by 10 nM orexin-A with buffer in place of antagonist. For each antagonist, IC50 value (the concentration of compound needed to inhibit 50% of the agonistic response) is determined.

In the next assay the target is T2, human orexin-2 receptor (Homo sapiens, UniProt O43614).
T2 construct: expressed in transfected cells; host or cells: CHO (Chinese hamster ovary) cells, G418 selection
T2 sequence (O43614 1-444): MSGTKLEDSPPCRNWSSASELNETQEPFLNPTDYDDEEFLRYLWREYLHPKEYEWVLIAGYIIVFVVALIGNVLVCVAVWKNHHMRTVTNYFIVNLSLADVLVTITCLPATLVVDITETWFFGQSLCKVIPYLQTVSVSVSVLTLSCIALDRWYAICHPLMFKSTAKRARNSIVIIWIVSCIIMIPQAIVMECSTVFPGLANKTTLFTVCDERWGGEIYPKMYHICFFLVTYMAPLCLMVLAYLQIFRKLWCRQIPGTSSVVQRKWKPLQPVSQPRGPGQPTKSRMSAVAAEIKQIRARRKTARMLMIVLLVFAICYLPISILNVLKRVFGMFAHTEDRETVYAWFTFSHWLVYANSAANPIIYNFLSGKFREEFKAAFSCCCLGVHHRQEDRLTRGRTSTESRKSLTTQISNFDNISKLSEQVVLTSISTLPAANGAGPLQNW
Kind of assay: Intracellular calcium measurements (FLIPR), orexin receptor antagonistic activity, OX2. It counts as cell-based. Conditions: CHO cells expressing the human orexin-2 receptor, 10 nM orexin-A as agonist. How it is done:
as §1, §2, §3, §4, §5, §6, §7, §8
For orientation: Calcium assays in cells follow changes in intracellular calcium, usually with a dye or a luminescent sensor.

The structures appear in SMILES notation.

As to `Cc1cccc(-c2sc(C)nc2C(=O)N2[C@H](CNC(=O)c3cccc4c3OCCN4C)C[C@@H]3C[C@@H]32)c1` [Example 130, 4-Methyl-3,4-dihydro-2H-benzo[1,4]oxazine-8-carboxylic acid [(1S,3S,5S)-2-(2-methyl-5-m-tolyl-thiazole-4-carbonyl)-2-aza-bicyclo[3.1.0]hex-3-ylmethyl]-amide], the 50% inhibitory concentration (IC50) (usually the concentration that inhibits the measured activity by half) amounted to 76 nM on human orexin-1 receptor and 129 nM on human orexin-2 receptor.
The matching figures for `Nc1nc(C(=O)N2[C@H](CNC(=O)c3cccc4c3OCCO4)C[C@@H]3C[C@@H]32)c(-c2cccc(F)c2)s1` [Example 25, 2,3-dihydro-benzo[1,4]dioxine-5-carboxylic acid {(1S,3S,5S)-2-[2-amino-5-(3-fluoro-phenyl)-thiazole-4-carbonyl]-2-aza-bicyclo[3.1.0]hex-3-ylmethyl}-amide]: 80 nM and 14 nM.
In the case of `Cc1nc(C(=O)N2[C@H](CNc3ncc(Br)cn3)C[C@@H]3C[C@@H]32)c(-c2ccc(F)c(F)c2)s1` [Example 259, {(1S,3S,5S)-3-[(5-Bromo-pyrimidin-2-ylamino)-methyl]-2-aza-bicyclo[3.1.0]hex-2-yl}-[5-(3,4-difluoro-phenyl)-2-methyl-thiazol-4-yl]-methanone], the 50% inhibitory concentration (IC50) at human orexin-1 receptor was 62 nM; at human orexin-2 receptor it was 145 nM.
The matching figures for `O=C(NC[C@@H]1C[C@@H]2C[C@@H]2N1C(=O)c1ncsc1-c1cccc(Cl)c1)c1cccc2cccnc12` [Example 235, Quinoline-8-carboxylic acid {(1S,3S,5S)-2-[5-(3-chloro-phenyl)-thiazole-4-carbonyl]-2-aza-bicyclo[3.1.0]hex-3-ylmethyl}-amide]: 88 nM and 452 nM.
In the case of `CCn1cc(C(=O)NC[C@@H]2C[C@@H]3C[C@@H]3N2C(=O)c2nc(C)sc2-c2cccc(C)c2)c(C)n1` [Example 99, 1-Ethyl-3-methyl-1H-pyrazole-4-carboxylic acid [(1S,3S,5S)-2-(2-methyl-5-m-tolyl-thiazole-4-carbonyl)-2-aza-bicyclo[3.1.0]hex-3-ylmethyl]-amide], the half-maximal inhibitory concentration (IC50) at human orexin-1 receptor is 42 nM; on human orexin-2 receptor it was 15 nM.
The matching figures for `Cc1nc(C(=O)N2[C@H](CNC(=O)c3cccc4c3CCO4)C[C@@H]3C[C@@H]32)c(-c2ccc(Br)cc2)s1` [Example 192, 2,3-Dihydro-benzofuran-4-carboxylic acid {(1S,3S,5S)-2-[5-(4-bromo-phenyl)-2-methyl-thiazole-4-carbonyl]-2-aza-bicyclo[3.1.0]hex-3-ylmethyl}-amide]: 110 nM and 35 nM.
Regarding `Cc1cccc(-c2sc(C)nc2C(=O)N2[C@H](CNC(=O)c3cccc(C(F)(F)F)c3)C[C@@H]3C[C@@H]32)c1` [Example 101, N-[(1S,3S,5S)-2-(2-Methyl-5-m-tolyl-thiazole-4-carbonyl)-2-aza-bicyclo[3.1.0]hex-3-ylmethyl]-3-trifluoromethyl-benzamide], the IC50 on human orexin-1 receptor came to 42 nM; on human orexin-2 receptor, 57 nM.
The matching figures for `O=C(NC[C@@H]1C[C@@H]2C[C@@H]2N1C(=O)c1nc(C2CC2)sc1-c1ccccc1F)c1cccc2c1CCO2` [Example 208, 2,3-Dihydro-benzofuran-4-carboxylic acid {(1S,3S,5S)-2-[2-cyclopropyl-5-(2-fluoro-phenyl)-thiazole-4-carbonyl]-2-aza-bicyclo[3.1.0]hex-3-ylmethyl}-amide]: 58 nM and 34 nM.
On the same counts, the results for `CCc1cnc(NC[C@@H]2C[C@@H]3C[C@@H]3N2C(=O)c2nc(C)sc2-c2cccc(C)c2)nc1` [Example 277, {(1S,3S,5S)-3-[(5-Ethyl-pyrimidin-2-ylamino)-methyl]-2-aza-bicyclo[3.1.0]hex-2-yl}-(2-methyl-5-m-tolyl-thiazol-4-yl)-methanone] are 42 nM and 154 nM.
The matching figures for `Cc1cccc(-c2sc(N)nc2C(=O)N2[C@H](CNC(=O)c3cccc4cccnc34)C[C@@H]3C[C@@H]32)c1` [Example 176, Quinoline-8-carboxylic acid [(1S,3S,5S)-2-(2-amino-5-m-tolyl-thiazole-4-carbonyl)-2-aza-bicyclo[3.1.0]hex-3-ylmethyl]-amide]: 45 nM and 57 nM.
Take `Cc1nc(C(=O)N2[C@H](CNC(=O)c3cccc4cccnc34)C[C@@H]3C[C@@H]32)c(-c2ccccc2)s1` [Example 230, Quinoline-8-carboxylic acid [(1S,3S,5S)-2-(2-methyl-5-phenyl-thiazole-4-carbonyl)-2-aza-bicyclo[3.1.0]hex-3-ylmethyl]-amide]: the IC50 on human orexin-1 receptor was found to be 13 nM; at human orexin-2 receptor it was 100 nM.
The matching figures for `COc1ccc(C(=O)NC[C@@H]2C[C@@H]3C[C@@H]3N2C(=O)c2nc(C)sc2-c2cccc(C)c2)cc1OC` [Example 123, 3,4-Dimethoxy-N-[(1S,3S,5S)-2-(2-methyl-5-m-tolyl-thiazole-4-carbonyl)-2-aza-bicyclo[3.1.0]hex-3-ylmethyl]-benzamide]: 1980 nM and 74 nM.
On the same counts, the results for `Cc1cc(C)cc(-c2sc(C)nc2C(=O)N2[C@H](CNc3ncc(Br)cn3)C[C@@H]3C[C@@H]32)c1` [Example 255, {(1S,3S,5S)-3-[(5-Bromo-pyrimidin-2-ylamino)-methyl]-2-aza-bicyclo[3.1.0]hex-2-yl}-[5-(3,5-dimethyl-phenyl)-2-methyl-thiazol-4-yl]-methanone] are 37 nM and 291 nM.
On the same counts, the results for `Cc1cccc(-c2sc(C)nc2C(=O)N2[C@H](CNC(=O)c3c(C)nc4sccn34)C[C@@H]3C[C@@H]32)c1` [Example 11, 6-methyl-imidazo[2,1-b]thiazole-5-carboxylic acid [(1S,3S,5S)-2-(2-methyl-5-m-tolyl-thiazole-4-carbonyl)-2-aza-bicyclo[3.1.0]hex-3-ylmethyl]-amide] are 7 nM and 24 nM.
In the case of `Cc1cccc(-c2sc(C)nc2C(=O)N2[C@H](CNc3nccc(C(F)(F)F)n3)C[C@@H]3C[C@@H]32)c1` [Example 274, (2-Methyl-5-m-tolyl-thiazol-4-yl)-{(1S,3S,5S)-3-[(4-trifluoromethyl-pyrimidin-2-ylamino)-methyl]-2-aza-bicyclo[3.1.0]hex-2-yl}-methanone], the 50% inhibitory concentration (IC50) on human orexin-1 receptor amounted to 110 nM; on human orexin-2 receptor, 98 nM.
On the same counts, the results for `Cc1cccc(-c2sc(N)nc2C(=O)N2[C@H](CNC(=O)c3c(C)noc3C)C[C@@H]3C[C@@H]32)c1` [Example 33, 3,5-dimethyl-isoxazole-4-carboxylic acid [(1S,3S,5S)-2-(2-amino-5-m-tolyl-thiazole-4-carbonyl)-2-aza-bicyclo[3.1.0]hex-3-ylmethyl]-amide] are 129 nM and 94 nM.
Regarding `Nc1nc(C(=O)N2[C@H](CNC(=O)c3cnc4sccn34)C[C@@H]3C[C@@H]32)c(-c2cccc(F)c2)s1` [Example 57, imidazo[2,1-b]thiazole-5-carboxylic acid {(1S,3S,5S)-2-[2-amino-5-(3-fluoro-phenyl)-thiazole-4-carbonyl]-2-aza-bicyclo[3.1.0]hex-3-ylmethyl}-amide], the half-inhibitory concentration (IC50) at human orexin-1 receptor turned out to be 12 nM; at human orexin-2 receptor, 11 nM.

Source of the values: US8288435B2, “2-aza-bicyclo[3.1.0]hexane derivatives as orexin receptor antagonists” (Actelion Pharmaceuticals Ltd., priority 2006, dated 2012).
